From US11702404B2, “GLP-1R modulating compounds” (priority 2019, dated 2023)
Read-outs that look alike come from different tables or passages of the source.

Legend:
[1] = Microsomal stability, human liver microsomes (predicted hepatic clearance); conditions: predicted from in vitro microsomal stability data
GLP-1R = GLP-1R (Homo sapiens, UniProt P43220); experiment: GLP-1R activation: cAMP increase in CHO cells stably expressing GLP-1R; format: cell-based
[2] = cAMP increase, CHO cells stably expressing GLP-1R, 10 point dose response, 30 minutes incubation, read-out: EC50

Chain of GLP-1R (P43220 24-463): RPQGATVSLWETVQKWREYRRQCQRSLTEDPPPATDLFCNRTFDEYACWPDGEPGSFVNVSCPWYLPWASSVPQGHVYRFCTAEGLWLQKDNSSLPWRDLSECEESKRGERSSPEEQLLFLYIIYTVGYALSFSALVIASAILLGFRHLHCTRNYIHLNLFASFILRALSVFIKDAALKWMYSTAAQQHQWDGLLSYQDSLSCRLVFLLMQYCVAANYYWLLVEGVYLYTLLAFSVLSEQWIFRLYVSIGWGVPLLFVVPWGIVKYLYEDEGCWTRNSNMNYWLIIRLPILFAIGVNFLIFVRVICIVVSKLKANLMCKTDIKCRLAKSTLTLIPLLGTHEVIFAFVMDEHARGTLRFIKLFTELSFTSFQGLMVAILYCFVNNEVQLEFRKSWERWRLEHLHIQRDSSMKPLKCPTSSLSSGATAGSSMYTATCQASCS

Row | SMILES | Predicted Hepatic Clearance (Pred. Cl.) [1] | EC50 (GLP-1R; [2]) | EC50 (GLP-1R; EC50 (nM))
1 | Cc1conc1Cn1c(Cc2ccc(-c3cccc(OCc4ccc(C#N)cc4F)n3)cc2F)nc2ccc(C(=O)O)cc21 [Example 490, 2-(4-(6-((4-cyano-2-fluorobenzyl)oxy)pyridin-2-yl)-2-fluorobenzyl)-1-((4-methylisoxazol-3-yl)methyl)-1H-benzo[d]imidazole-6-carboxylic acid] | 3.67 mL/min/kg | 5.53 nM | 
2 | N#Cc1ccc(COc2cccc(-c3ccc(Cc4nc5ccc(C(=O)O)cc5n4Cc4cn[nH]c4)c(F)c3)n2)c(F)c1 [Example 491, 1-((1H-pyrazol-4-yl)methyl)-2-(4-(6-((4-cyano-2-fluorobenzyl)oxy)pyridin-2-yl)-2-fluorobenzyl)-1H-benzo[d]imidazole-6-carboxylic acid] | 12.7 mL/min/kg | 19.4 nM | 
3 | N#Cc1ccc(COc2cccc(-c3ccc(Cc4nc5c(F)cc(C(=O)O)cc5n4C[C@@H]4CCO4)cc3F)n2)c(F)c1 [Example 492, (S)-2-(4-(6-((4-cyano-2-fluorobenzyl)oxy)pyridin-2-yl)-3-fluorobenzyl)-4-fluoro-1-(oxetan-2-ylmethyl)-1H-benzo[d]imidazole-6-carboxylic acid] | <1.83 mL/min/kg | 5.16 nM | 
4 | COCCn1c(Cc2ccc(-c3cccc(O[C@@H](C)c4ccccc4)n3)cc2F)nc2ccc(C(=O)O)cc21 [Example 494, (S)-2-(2-fluoro-4-(6-(1-phenylethoxy)pyridin-2-yl)benzyl)-1-(2-methoxyethyl)-1H-benzo[d]imidazole-6-carboxylic acid] | 13.2 mL/min/kg | 4550 nM | 
5 | COCCn1c(Cc2ccc(-c3cccc(OCc4ccc(C#N)cc4)n3)cc2F)nc2ccc(C(=O)O)cc21 [Example 499, 2-(4-(6-((4-cyanobenzyl)oxy)pyridin-2-yl)-2-fluorobenzyl)-1-(2-methoxyethyl)-1H-benzo[d]imidazole-6-carboxylic acid] | 3.5 mL/min/kg |  | 8.18 nM
6 | COCCn1c(Cc2ccc(-c3cccc(OCc4ccccc4-c4ccccc4)n3)cc2F)nc2ccc(C(=O)O)cc21 [Example 500, 2-(4-(6-([1,1′-biphenyl]-2-ylmethoxy)pyridin-2-yl)-2-fluorobenzyl)-1-(2-methoxyethyl)-1H-benzo[d]imidazole-6-carboxylic acid] | 9.67 mL/min/kg | 474 nM | 
7 | COCCn1c(Cc2ccc(-c3cccc(OCc4cccc(-c5ccccc5)c4)n3)cc2F)nc2ccc(C(=O)O)cc21 [Example 504, 2-(4-(6-([1,1′-biphenyl]-3-ylmethoxy)pyridin-2-yl)-2-fluorobenzyl)-1-(2-methoxyethyl)-1H-benzo[d]imidazole-6-carboxylic acid] | 3.5 mL/min/kg | 28.5 nM | 
8 | COCCn1c(Cc2ccc(-c3cccc(OCc4ccccc4NC(=O)OC(C)(C)C)n3)cc2F)nc2ccc(C(=O)O)cc21 [Example 506, 2-(4-(6-((2-((tert-butoxycarbonyl)amino)benzyl)oxy)pyridin-2-yl)-2-fluorobenzyl)-1-(2-methoxyethyl)-1H-benzo[d]imidazole-6-carboxylic acid] | 12.5 mL/min/kg | 2180 nM | 
9 | COCCn1c(Cc2ccc(-c3cccc(O[C@H](C)c4ccccc4)n3)cc2F)nc2ccc(C(=O)O)cc21 [Example 515, (R)-2-(2-fluoro-4-(6-(1-phenylethoxy)pyridin-2-yl)benzyl)-1-(2-methoxyethyl)-1H-benzo[d]imidazole-6-carboxylic acid] | 7.5 mL/min/kg | 876 nM | 
10 | O=C(O)c1ccc2nc(Cc3cc(F)c(-c4cccc(OCc5ccc(C(F)(F)F)cc5)n4)cc3F)n(C[C@@H]3CCO3)c2c1 [Example 517, (S)-2-(2,5-difluoro-4-(6-((4-(trifluoromethyl)benzyl)oxy)pyridin-2-yl)benzyl)-1-(oxetan-2-ylmethyl)-1H-benzo[d]imidazole-6-carboxylic acid] | <1.83 mL/min/kg | 0.06 nM | 

Further lines, with some results ahead:

Row | Predicted Hepatic Clearance (Pred. Cl.) [1] | EC50 (GLP-1R; [2]) | SMILES | EC50 (GLP-1R; EC50 (nM))
11 | 19.2 mL/min/kg | 255 nM | COCCn1c(Cc2ccc(-c3cccc(OCc4nccnc4OC)n3)cc2F)nc2ccc(C(=O)O)cc21 [Example 493, 2-(2-fluoro-4-(6-((3-methoxypyrazin-2-yl)methoxy)pyridin-2-yl)benzyl)-1-(2-methoxyethyl)-1H-benzo[d]imidazole-6-carboxylic acid] | 
12 | 5.83 mL/min/kg | 777 nM | COCCn1c(Cc2ccc(-c3cccc(OCc4cccc(S(C)(=O)=O)c4)n3)cc2F)nc2ccc(C(=O)O)cc21 [Example 495, 2-(2-fluoro-4-(6-((3-(methylsulfonyl)benzyl)oxy)pyridin-2-yl)benzyl)-1-(2-methoxyethyl)-1H-benzo[d]imidazole-6-carboxylic acid] | 
13 | 18.2 mL/min/kg | 2000 nM | COCCn1c(Cc2ccc(-c3cccc(OCc4ccccc4COC)n3)cc2F)nc2ccc(C(=O)O)cc21 [Example 496, 2-(2-fluoro-4-(6-((2-(methoxymethyl)benzyl)oxy)pyridin-2-yl)benzyl)-1-(2-methoxyethyl)-1H-benzo[d]imidazole-6-carboxylic acid] | 
14 | 5.33 mL/min/kg | 1350 nM | COCCn1c(Cc2ccc(-c3cccc(OCc4cccc(C#N)c4)n3)cc2F)nc2ccc(C(=O)O)cc21 [Example 497, 2-(4-(6-((3-cyanobenzyl)oxy)pyridin-2-yl)-2-fluorobenzyl)-1-(2-methoxyethyl)-1H-benzo[d]imidazole-6-carboxylic acid] | 
15 | 11.5 mL/min/kg | 102 nM | COCCn1c(Cc2ccc(-c3cccc(OCc4ccccc4)n3)cc2F)nc2ccc(C(=O)O)cc21 [Example 501, 2-(4-(6-(benzyloxy)pyridin-2-yl)-2-fluorobenzyl)-1-(2-methoxyethyl)-1H-benzo[d]imidazole-6-carboxylic acid] | 
16 | 2.67 mL/min/kg | 2380 nM | COCCn1c(Cc2ccc(-c3cccc(OCn4ccc(C(N)=O)cc4=O)n3)cc2F)nc2ccc(C(=O)O)cc21 [Example 502, 2-(4-(6-((4-carbamoyl-2-oxopyridin-1(2H)-yl)methoxy)pyridin-2-yl)-2-fluorobenzyl)-1-(2-methoxyethyl)-1H-benzo[d]imidazole-6-carboxylic acid] | 
17 | <1.83 mL/min/kg | 41.2 nM | COCCn1c(Cc2ccc(-c3cccc(OCc4cccc(OC(F)F)c4)n3)cc2F)nc2ccc(C(=O)O)cc21 [Example 505, 2-(4-(6-((3-(difluoromethoxy)benzyl)oxy)pyridin-2-yl)-2-fluorobenzyl)-1-(2-methoxyethyl)-1H-benzo[d]imidazole-6-carboxylic acid] | 
18 | 19.2 mL/min/kg | 361 nM | COCCn1c(Cc2ccc(-c3cccc(OCc4ccccc4C(F)F)n3)cc2F)nc2ccc(C(=O)O)cc21 [Example 507, 2-(4-(6-((2-(difluoromethyl)benzyl)oxy)pyridin-2-yl)-2-fluorobenzyl)-1-(2-methoxyethyl)-1H-benzo[d]imidazole-6-carboxylic acid] | 
19 | 2.5 mL/min/kg | 16.5 nM | COCCn1c(Cc2ccc(-c3cccc(OCc4ccc(C(F)(F)F)cc4)n3)cc2F)nc2ccc(C(=O)O)cc21 [Example 508, 2-(2-fluoro-4-(6-((4-(trifluoromethyl)benzyl)oxy)pyridin-2-yl)benzyl)-1-(2-methoxyethyl)-1H-benzo[d]imidazole-6-carboxylic acid] | 
20 | 12 mL/min/kg | 102 nM | COCCn1c(Cc2ccc(-c3cccc(OCc4cccc(COC)c4)n3)cc2F)nc2ccc(C(=O)O)cc21 [Example 509, 2-(2-fluoro-4-(6-((3-(methoxymethyl)benzyl)oxy)pyridin-2-yl)benzyl)-1-(2-methoxyethyl)-1H-benzo[d]imidazole-6-carboxylic acid] | 
21 | 18.7 mL/min/kg | 29.7 nM | COCCn1c(Cc2ccc(-c3cccc(OCc4cccnc4OC)n3)cc2F)nc2ccc(C(=O)O)cc21 [Example 511, 2-(2-fluoro-4-(6-((2-methoxypyridin-3-yl)methoxy)pyridin-2-yl)benzyl)-1-(2-methoxyethyl)-1H-benzo[d]imidazole-6-carboxylic acid] | 
22 | 7.67 mL/min/kg | 6560 nM | COCCn1c(Cc2ccc(-c3cccc(OCc4nccn4C)n3)cc2F)nc2ccc(C(=O)O)cc21 [Example 512, 2-(2-fluoro-4-(6-((1-methyl-1H-imidazol-2-yl)methoxy)pyridin-2-yl)benzyl)-1-(2-methoxyethyl)-1H-benzo[d]imidazole-6-carboxylic acid] | 
23 | 5.17 mL/min/kg | 55.1 nM | COCCn1c(Cc2ccc(-c3cccc(OCn4ccc(C#N)cc4=O)n3)cc2F)nc2ccc(C(=O)O)cc21 [Example 513, 2-(4-(6-((4-cyano-2-oxopyridin-1(2H)-yl)methoxy)pyridin-2-yl)-2-fluorobenzyl)-1-(2-methoxyethyl)-1H-benzo[d]imidazole-6-carboxylic acid] | 
24 | 15.2 mL/min/kg | 60.8 nM | COCCn1c(Cc2ccc(-c3cccc(OCc4ccccc4F)n3)cc2F)nc2ccc(C(=O)O)cc21 [Example 514, 2-(2-fluoro-4-(6-((2-fluorobenzyl)oxy)pyridin-2-yl)benzyl)-1-(2-methoxyethyl)-1H-benzo[d]imidazole-6-carboxylic acid] | 
25 | <1.83 mL/min/kg | 2460 nM | COCCn1c(Cc2ccc(-c3cccc(OCc4ccccc4NS(C)(=O)=O)n3)cc2F)nc2ccc(C(=O)O)cc21 [Example 516, 2-(2-fluoro-4-(6-((2-(methylsulfonamido)benzyl)oxy)pyridin-2-yl)benzyl)-1-(2-methoxyethyl)-1H-benzo[d]imidazole-6-carboxylic acid] | 
